Reference: PubChem BioAssay AID256 (DTP/NCI, 2004)
Values joined by “and” are separate entries in the source; they are usually repeats but may differ in a detail not shown here. Identical values can stand only once. Toxic doses and inconclusive results are not listed. How the source made its calls: active means survival T/C of 150% or more; inactive means T/C below 125% in these data.

Test system: CD2F1 mice, L1210 leukemia ip, survival T/C
Test: NCI In Vivo Anticancer Drug Screen. Data for tumor model L1210 Leukemia (intraperitoneal) in CD2F1 (CDF1) mice
Conditions: higher = longer survival
Outline: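 Implant tumor; dose compound or vehicle; measure endpoint in both groups; report treated divided by control.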

[1] = endpoint: mean survival time, dose: 100.0 mg/kg/injection, schedule: Q04DX003 (ip), vehicle: saline with Tween-80
[2] = endpoint: mean survival time, dose: 200.0 mg/kg/injection, schedule: Q04DX003 (ip), vehicle: saline with Tween-80
[3] = endpoint: mean survival time, dose: 400.0 mg/kg/injection, schedule: Q01DX009 (ip), vehicle: saline with Tween-80
[4] = endpoint: mean survival time, dose: 400.0 mg/kg/injection, schedule: Q04DX003 (ip), vehicle: saline with Tween-80
[5] = endpoint: mean survival time, dose: 400.0 mg/kg/injection, schedule: Q01DX009 (ip), vehicle: saline sonified
[6] = endpoint: mean survival time, dose: 100.0 mg/kg/injection, schedule: Q04DX002 (ip), vehicle: saline with Tween-80
[7] = endpoint: mean survival time, dose: 200.0 mg/kg/injection, schedule: Q04DX002 (ip), vehicle: saline with Tween-80
[8] = endpoint: mean survival time, dose: 100.0 mg/kg/injection, schedule: Q01DX001 (ip), vehicle: saline with Tween-80
[9] = endpoint: mean survival time, dose: 200.0 mg/kg/injection, schedule: Q01DX001 (ip), vehicle: saline with Tween-80
[10] = endpoint: mean survival time, dose: 400.0 mg/kg/injection, schedule: Q01DX001 (ip), vehicle: saline with Tween-80

Measured: T/C

O=Cc1[nH]c(=S)[nH]c(=O)c1CCCc1ccccc1
inactive: endpoint: mean survival time, dose: 25.0 mg/kg/injection, schedule: Q04DX002 (ip), vehicle: Klucel (hydroxypropylcellulose) (HPC) 96 % of control | endpoint: mean survival time, dose: 50.0 mg/kg/injection, schedule: Q04DX002 (ip), vehicle: Klucel (hydroxypropylcellulose) (HPC) 104 % of control | endpoint: mean survival time, dose: 100.0 mg/kg/injection, schedule: Q04DX002 (ip), vehicle: Klucel (hydroxypropylcellulose) (HPC) 93 % of control | endpoint: mean survival time, dose: 200.0 mg/kg/injection, schedule: Q04DX002 (ip), vehicle: Klucel (hydroxypropylcellulose) (HPC) 94 % of control | endpoint: mean survival time, dose: 400.0 mg/kg/injection, schedule: Q04DX002 (ip), vehicle: Klucel (hydroxypropylcellulose) (HPC) 90 % of control

COC(=O)C1C2OC(C(Br)C2Br)C1C(=O)OC (stereo not given)
inactive: endpoint: mean survival time, dose: 100.0 mg/kg/injection, schedule: Q01DX009 (ip), vehicle: saline with Tween-80 100 % of control | [1] 97 % of control | endpoint: mean survival time, dose: 200.0 mg/kg/injection, schedule: Q01DX009 (ip), vehicle: saline with Tween-80 92 % of control | [2] 93 % of control | [3] 100 % of control | [4] 92 % of control

c1ccc2nc(NCCSSCCNc3cnc4ccccc4n3)cnc2c1
inactive: endpoint: mean survival time, dose: 100.0 mg/kg/injection, schedule: Q01DX009 (ip), vehicle: saline sonified 92 % of control | [1] 94 % of control | endpoint: mean survival time, dose: 200.0 mg/kg/injection, schedule: Q01DX009 (ip), vehicle: saline sonified 93 % of control | [2] 101 % of control | [5] 87 % of control | [4] 96 % of control

NC(=S)N/N=C1\CC2CC1C1C=CCC21 (stereo not given)
inactive: [6] 111 % of control | [7] 98 % of control

CN(C)CCNCCN(C)C
inactive: endpoint: mean survival time, dose: 75.0 mg/kg/injection, schedule: Q01DX001 (ip), vehicle: saline 100 % of control | endpoint: mean survival time, dose: 150.0 mg/kg/injection, schedule: Q01DX001 (ip), vehicle: saline 100 % of control | endpoint: mean survival time, dose: 300.0 mg/kg/injection, schedule: Q01DX001 (ip), vehicle: saline 102 % of control

O=C(NNC(=O)c1cccc(C(=O)NNC(=O)c2ccc(Cl)c(Cl)c2)n1)c1ccc(Cl)c(Cl)c1
inactive: endpoint: median survival time, dose: 43.2 mg/kg/injection, schedule: Q01DX005 (ip), vehicle: Klucel (hydroxypropylcellulose) (HPC) 110 % of control | endpoint: median survival time, dose: 72.0 mg/kg/injection, schedule: Q01DX005 (ip), vehicle: Klucel (hydroxypropylcellulose) (HPC) 115 % of control | endpoint: median survival time, dose: 120.0 mg/kg/injection, schedule: Q01DX005 (ip), vehicle: Klucel (hydroxypropylcellulose) (HPC) 115 % of control and 116 % of control | endpoint: median survival time, dose: 200.0 mg/kg/injection, schedule: Q01DX005 (ip), vehicle: Klucel (hydroxypropylcellulose) (HPC) 120 % of control and 86 % of control | endpoint: median survival time, dose: 333.33 mg/kg/injection, schedule: Q01DX005 (ip), vehicle: Klucel (hydroxypropylcellulose) (HPC) 92 % of control

O=[N+]([O-])O.[NH2-].[NH2-].[NH2-].[NH2-].[OH-].[OH-].[Pt+4].[Pt+4]
inactive: endpoint: mean survival time, dose: 2.5 mg/kg/injection, schedule: Q04DX003 (ip), vehicle: water 89 % of control | endpoint: mean survival time, dose: 5.0 mg/kg/injection, schedule: Q04DX003 (ip), vehicle: water 97 % of control | endpoint: median survival time, dose: 0.15 mg/kg/injection, schedule: Q04DX003 (ip), vehicle: water 97 % of control | endpoint: median survival time, dose: 0.31 mg/kg/injection, schedule: Q04DX003 (ip), vehicle: water 97 % of control

O=C1OC(/C=C/c2ccccc2)=NC/1=C\c1ccccc1Cl
inactive: [6] 103 % of control | [7] 103 % of control | endpoint: mean survival time, dose: 400.0 mg/kg/injection, schedule: Q04DX002 (ip), vehicle: saline with Tween-80 91 % of control

O=Cc1ccccc1O.O=Cc1ccccc1O.O=Cc1ccccc1O.[La]
inactive: [1] 89 % of control | [2] 98 % of control

O=C(COc1ccc(Br)cc1C(=O)O)Nc1ccccc1
inactive: [1] 96 % of control | [2] 97 % of control | [4] 94 % of control

CC(=O)CC(=O)c1ccc(C(=O)CC(C)=O)cc1.[Fe]
inactive: [1] 96 % of control | [2] 89 % of control | [4] 104 % of control

CC1(Br)C(C)(Br)C(C)(Br)C(C)(Br)C(C)(Br)C1(C)Br (stereo not given)
inactive: [8] 96 % of control | [9] 101 % of control | [10] 101 % of control

CC(=O)OCC(=O)C1CCC2C3CCC4CC(OC(C)=O)CCC4(C)C3CCC12C (stereo not given)
inactive: [8] 91 % of control | [9] 91 % of control | [10] 105 % of control

CCOC(=O)c1[nH]cnc1/N=N/N(C)CCO
active: endpoint: mean survival time, dose: 264.0 mg/kg/injection, schedule: Q01DX009 (ip), vehicle: saline sonified 160 % of control | [5] 162 % of control | [3] 150 % of control | endpoint: mean survival time, dose: 600.0 mg/kg/injection, schedule: Q01DX009 (ip), vehicle: saline sonified 165 % of control
inactive: [1] 106 % of control | [2] 111 % of control | [4] 109 % of control
